These results are taken from patent US7691624B2, “Cancer cell detecting devices” (Academia Sinica, priority 2003, dated 2010).

Data set [1] in a line: Absorption analysis of the free compound. In kind it is physicochemical. Particulars: compound alone, before adding DNA. The method, then:
Each oligonucleotide described above was mixed with a solution of 10 mM Tris-HCl (pH 7.5) and 150 mM NaCl and was denatured at 90° C. for 2 min. The mixture was then cooled slowly to room temperature and stored at 4° C. for more than 2 days before use. A test compound was then added to this solution to form a compound/DNA complex. The resultant complex was subjected to absorption analysis using a Hitachi U3200 UV-visible spectrophotometer.
The absorption spectra were taken for compound 2 and its complex with each oligonucleotide. […] In addition, the molar absorption coefficient decreased by ˜15% in the presence of a DNA duplex and ˜35% in the presence of a DNA quadruplex. 10 These spectra changes indicate that compound 2 binds to duplexes and quadruplexes.

A further data set relates to DNA. The data set can be described thus: Fluorescence analysis in the presence of a DNA. In kind it is binding. As to conditions: λex≈430 nm; compound 2 with eleven DNAs, compound 4 with Hum24. Here is the method:
(§1) Compound 2 was mixed with eleven DNAs and subjected to fluorescence analysis at λex≈430 nm, using a Hitachi F4010 spectrofluorimeter with a 2 nm bandwidth in a 1-cm cell. Fluorescence analysis was also carried out for compound 4 in the presence of Hum24. […] Further, the fluorescence peaks for a complex of compound 2 and a DNA duplex and a complex of compound 2 and a DNA quadruplex were at ˜550 nm and ˜575 nm, respectively.

The next data set has as its system DNA duplex. The data set can be described thus: Fluorescence analysis of compound/DNA complex. In kind it is binding. As to conditions: complex with a DNA duplex, λex≈430 nm. Here is the method:
as §1

The test system of the next data set is DNA quadruplex. Kind of data set: Fluorescence analysis of compound/DNA complex. In kind it is binding. The method, then: as §1
Data set [2] deals with AT, LD, GC, G10, LQ1, LQ2, LQ4, Tet12, Oxy12, Hum12, Apt, Oxy28, and Hum24. Kind of data set: Post-stained polyacrylamide gel electrophoresis. In kind it is binding. Particulars: gels post-stained with 10 μM compound, 254 nm UV light. Here is the method: Compound 2 and its complexes with DNA quadruplexes were further studied by polyacrylamide gel eletrophoresis (PAGE). More specifically, compound 2/DNA quadruplexes described above were analyzed by PAGE in 20% native gels in 10 mM Tris-HCI and 150 mM NaCl (pH 7.5). Gel electrophoresis was carried out in an electric field of 100 V/cm at 4° C. for 15 hours. DNA concentrations were determined by absorbencies at 260 nm and were adjusted to about 10 μM per unit structure. After photographing with UV shadowing, gels were post-stained in a solution containing 10 μM of compound 2, 10 mM Tris-HCl, and 150 mM NaCl (pH 7.5) at room temperature for 10 seconds. The gels were then rinsed by distilled water and photographed under 254 nm UV light using a digital camera.
Gels were post-stained with compound 2 after electrophoresis of AT, LD, GC, G10, LQ1, LQ2, LQ4, Tet12, Oxy12, Hum12, Apt, Oxy28, and Hum24 was complete. […] In particular, most DNAs migrated in the gel in a single band, but Tet12 and LQ4 migrated in two bands.

The test system of another data set is LQ4. The data set can be described thus: Pre-stained gel electrophoresis selectivity and sensitivity assay. In kind it is binding. The method, then: (§2) Pre-stained gels were used for selectivity assays. A 0.1 μM compound 2 solution was initially incubated with 10 μM of different DNA solutions for 10 minutes. Gel electrophoresis was then carried out in an electric field of 100 V/cm at 4° C. for 6 hours. All of the pre-stained gels were photographed under 254 nm UV light using a Bio-Rad imaging detector.
(§3) Gels pre-stained with compound 2 were used before running electrophoresis for AT, LD, GC, G10, LQ1, LQ2, LQ4, Tet12, Oxy12, Hum12, Apt, Oxy28, and Hum24. […] This third band is ascribed to be a linear tetramer of Tet12.
(§4) To study the sensitivity of DNA detection using electrophoresis described above, a solution containing 0.1 μM of compound 2 was incubated with solutions containing 2.5 to 0.005 μM of Hum24. The mixtures were then subjected to electrophoresis.

The test system of another data set is Oxy28. Described as above. In kind it is binding. The method, then: as §2, §3, §4
For another data set, the system named is Tet12. The description is as above. In kind it is binding. Here is the method: as §2, §3, §4
The test system of data set [3] is tested normal cells (HaCaT, Detroit-551, IMR-90, BJ-1). The data set can be described thus: Cancer cell diagnosis by wide-field fluorescence microscopy. In kind it is cell-based. As to conditions: each type of tested normal cells; 0.1 μM, 3-6 hours. The method, then:
A wide-field fluorescence microscopy was custom made for diagnosing cancer cells. The microscopy consists of an Ar^+ laser (Coherent Inc. Santa Clara, Calif.) as the light source, a sensitive cooled charged-coupled device (CCD) camera (DV465-UV, Andor Technology, South Windsor, Conn.) for imaging, and two avalanche photodiodes (APDs) for transient photoluminescence measurement. Excitation and imaging were conducted by an oil immersion microscope objective with a numerical aperture of 1.3. A dichroism mirror (Omega) was used to direct the fluorescence into the CCD camera. A holographic notch filter (Oriel) was used to block the backscattered laser light. Images of 250×250 pixels were recorded at a high speed. The imaged area was 50×50 μm^2 and the spatial resolution was about 2 pixels.
The following cells were tested: CL1-1 human lung cancer cells, H1299 lung cancer cells, hTERT-BJ lung cancer cells, Ca9-22 oral cancer cells, HeLa cervical cancer cells, KJ-1 nasopharyngeal cancer cells, HaCaT keratinocyte cells, Detroit-551 skin normal cells, IMR-90 lung normal cells, and BJ-1 lung fibroblast cells. Specifically, cells were incubated with 0.1 μM of compound 2 in a culture medium for 3-6 hours. The non-fixed cells were washed three times with phosphate-buffered saline and then studied under the wide-field fluorescence microscope.

Another data set has as its system NIH3T3 normal cells. Kind of data set: Cancer cell diagnosis in a tube. In kind it is cell-based. Particulars: NIH3T3 normal cells alone. The source says:
(§5) NIH3T3 normal cells and a mixture of NIH3T3 normal cells and CL1-0 cancer cells with a cell ratio of 100:1 were respectively stained with Compound 2 and allowed to flow through a tube. The fluorescence emission upon excitation was monitored. […] In other words, this method can be used for early detection of cancer cells when cancer cells have a low concentration in a sample. For example, this method can be used to identify patients at risk of developing cancer, who should consider further examination by a physician.

For data set [4], the system named is mixture of NIH3T3 normal cells and CL1-0 cancer cells with a cell ratio of 100:1. The data set can be described thus: Cancer cell diagnosis in a tube. In kind it is cell-based. Particulars: NIH3T3:CL1-0 100:1.
Text: as §5

Setting [5] is: 0.1 μM compound solution, electrophoresis.
Setting [6] is: 0.1 μM compound, 10 μM DNA, 254 nm UV light.

Consider `C[n+]1ccc(C=Cc2ccc3[nH]c4ccc(C=Cc5cc[n+](C)cc5)cc4c3c2)cc1.[I-].[I-]` [Compound 2, 3,6-bis-(2-(1-methylpyridinium-4-yl)-vinyl)-9H-carbazole diiodide], for which the absorption peak in [1] is listed as about 435 nm. Also, the “increase of fluorescence intensity in the presence of a DNA” value with DNA is listed as “two orders of magnitude”. The “fluorescence peak of complex” value in the data set with DNA duplex is recorded as about 550 nm; in the data set with DNA quadruplex (complex with a DNA quadruplex, λex≈430 nm), about 575 nm. The binding preference entry in the data set on DNA quadruplex (DNA quadruplex versus DNA duplex, fluorescence analysis) is listed as “higher binding preference to a DNA quadruplex than to a DNA duplex”. The “fluorescence bands in post-stained gels” value in data set [2] is “most DNAs exhibited fluorescence bands”. For the same compound, in the data set with LQ4 (setting [5]), the “concentration of LQ4 quadruplex detected” value was 0.1 µM. The “fluorescence band in pre-stained gel” value in the data set with LQ4 (setting [6]) is “exhibited fluorescence bands”; in the data set on Oxy28 (setting [6]), “exhibited fluorescence bands”; with Tet12 (setting [6]), “only exhibited a third fluorescence band”. The “concentration of Oxy28 quadruplex detected” value in the data set with Oxy28 (setting [5]) worked out at 0.1 µM. In addition, the “concentration of Tet12 quadruplex in which a small amount of linear tetramer is detected” value in the data set with Tet12 (setting [5]) was determined as 0.25 µM. For the same compound, the “percentage of cells exhibiting bright fluorescence in the nucleus” value in data set [3] is “less than 20%”. Also, the entries for the “fluorescence observed from stained cells flowing through a tube” value (in the data set on NIH3T3 normal cells; in data set [4]) were “only weak fluorescence” and “bright fluorescence”, respectively.
